Data: patent US12138256B2, “Treatment of cardiopulmonary disorders” (Bayer Aktiengesellschaft, priority 2021, dated 2024)

System: systemic blood pressure
Assay: First clinical studies in healthy volunteers: systemic blood pressure
Type: in vivo, human
Settings: up to 4000 μg, dry powder inhaled

SMILES: O=C(O)c1ccc(CCN(CCc2ccccc2OCc2ccc(-c3ccc(C(F)(F)F)cc3)cc2Cl)[C@H]2CCCc3nc(C(=O)O)ccc32)cc1 [example 4, (5S)-{[2-(4-Carboxyphenyl)ethyl][2-(2-{[3-chloro-4′-(trifluoromethyl)biphenyl-4-yl]methoxy}phenyl)-ethyl]amino}-5,6,7,8-tetrahydroquinoline-2-carboxylic acid]
- effect on systemic blood pressure in healthy volunteers: no clinically meaningful effect on systemic blood pressure
